One test concerns Alternaria alternate. Nature of the test: in vitro-Test with fungal microorganisms, Method A (tables A1-A12). It is filed as cell-based, Alternaria alternata. As to conditions: Alternaria, applied alone, read-out: Efficacy %. The procedure: (§1) Example: In Vitro-Test with Fungal Microorganisms
(§2) Wells of 96-well microtiter plates are filled with 10 μl of a preparation of test compound or compound combination in methanol+emulsifier alkylaryl-polyglycol-ether. Thereafter, the solvent is evaporated in a hood. At the next step, 100 μl of liquid potato dextrose medium is given into each well, that has been amended with an appropriate concentration of spores or mycelium suspension of the test fungus.
(§3) With the aid of a photometer, the extinction in all wells is measured at the wavelength of 620 nm.
(§4) The microtiter plates are incubated at 20° C. and 85% relative humidity. The inhibition of growth is determined again photometrically 3-5 days after the application. Efficacy is calculated in relation to the untreated control, 0% efficacy means fungal growth as high as in untreated control while 100% efficacy means no fungal growth is measured.
(§5) The data in tables A1 to A12, B1 to B14, C1 to C10, D1 to D8, E1 to E8, F1 to F11, G1 to G4, H1 to H4 and I1 to I5 were collected according to Method A. The data in tables A13 to A22, B15 to B18, C11 to C20, E9 to E16, F12 to F15, G5 to G15, H5 to H8, I6 to I11 and J1 to J11 were collected according to Method B.

The test system of test [1] is Botrytis cinerea. Nature of the test: in vitro-Test with fungal microorganisms, Method A (tables B1-B14). The conditions noted are these: Botrytis cinerea, read-out: Efficacy. Format: cell-based. On the procedure:
as §1, §2, §3, §4, §5

Test [2] concerns Cercospora beticola. Nature of the test: in vitro-Test with fungal microorganisms, Method A (tables C1-C10). As to conditions: Cercospora beticola, read-out: Efficacy %. It is filed as cell-based. The procedure: as §1, §2, §3, §4, §5
The next test deals with Diaporthe citri. Nature of the test: in vitro-Test with fungal microorganisms, Method A (tables F1-F11). The conditions noted are these: Diaporthe citri, single active, read-out: Efficacy. Format: cell-based. The procedure: as §1, §2, §3, §4, §5
The subject of test [3] is Ustilago segetum var. avenae. Nature of the test: in vitro-Test with fungal microorganisms, Method A (tables I1-I5). The conditions noted are these: alone, read-out: Efficacy %. It is filed as cell-based. On the procedure: as §1, §2, §3, §4, §5
The subject of test [4] is Cercospora beticola. Nature of the test: in vitro-Test with fungal microorganisms, Method B (tables C11-C20). Format: cell-based. The procedure:
as §1
(§6) Wells of 96-well microtiter plates are filled with 30 μl of a preparation of test compound or compound combination in methanol+emulsifier alkylaryl-polyglycol-ether. Thereafter, the solvent is evaporated in a hood. At the next step, 200 μl of liquid growth medium is given, that has been amended with an appropriate concentration of spores or mycelium suspension of the test fungus.
(§7) With the aid of a photometer, the extinction in all wells is measured at the wavelength of 600 nm.
(§8) The microtiter plates are incubated for 3 to 7 days at 20° C. and 85% relative humidity. After the incubation inhibition of growth is determined photometrically. Efficacy is calculated in relation to the untreated control, 0% efficacy means fungal growth as high as in untreated control while 100% efficacy means no fungal growth is measured.
as §5

The test system of the next test is Cordana musae. Nature of the test: in vitro-Test with fungal microorganisms, Method B (tables E9-E16). Format: cell-based. The conditions noted are these: single active. The procedure: as §1, §6, §7, §8, §5
A further test deals with Fusarium culmorum. Nature of the test: in vitro-Test with fungal microorganisms, Method B (tables G5-G15). Format: cell-based. The conditions noted are these: for inhibition of growth at 0.008 ppm / inhibition of growth at 0.04 ppm / inhibition of growth at 0.2 ppm / inhibition of growth at 1 ppm: Fusarium culmorum, alone, read-out: Efficacy. On the procedure: as §1, §6, §7, §8, §5

Test [5] deals with Ustilago segetum var. avenae. Nature of the test: in vitro-Test with fungal microorganisms, Method B (tables I6-I11). It is filed as cell-based. The procedure: as §1, §6, §7, §8, §5
A further test relates to Colletotrichum coccodes. Nature of the test: in vitro-Test with fungal microorganisms, Method B (tables J1-J11). It is filed as cell-based. On the procedure: as §1, §6, §7, §8, §5
In another test the test system is Alternaria alternata. Nature of the test: in vitro-Test with fungal microorganisms, Method B (tables A13-A22). As to conditions: for inhibition of growth at 0.008 ppm / inhibition of growth at 0.04 ppm / inhibition of growth at 0.2 ppm / inhibition of growth at 1 ppm: Alternaria alternata, read-out: Efficacy. Format: cell-based. On the procedure:
as §1, §6, §7, §8, §5

Test [6] has as its system Botrytis cinerea. Nature of the test: in vitro-Test with fungal microorganisms, Method B (tables B15-B18). Format: cell-based. On the procedure: as §1, §6, §7, §8, §5
Setting [7] is: Botrytis cinerea, 1 ppm alone, read-out: Efficacy %.

In US12653191B2, “Active compound combinations” (Bayer Aktiengesellschaft, priority 2020, dated 2026) one finds inhibition of growth, Efficacy % and Efficacy data, which are given here for eight compounds.

Each structure is given as a SMILES string. Values joined by “and” are separate entries in the source; they are usually repeats but may differ in a detail not shown here. Identical values can stand only once. Like-named read-outs stand apart in the source and are kept apart here.

Consider `Cc1ccc(CC2CON=C(c3cc(C)nnc3Oc3cccc(C4CC4)c3F)N2)c(C)c1` (racemic) [Compound I-052, rac-3-[3-(3-cyclopropyl-2-fluorophenoxy)-6-methylpyridazin-4-yl]-5-[(2,4-dimethylphenyl)methyl]-5,6-dihydro-4H-1,2,4-oxadiazine], for which the inhibition of growth at 0.0008 ppm with Alternaria alternate (0.0008 ppm) stood at 2%; in the test with Botrytis cinerea [1] (0.0008 ppm) it was 0%; with Cercospora beticola [2] (0.0008 ppm alone) it was 0%; with Diaporthe citri (0.0008 ppm), 0%; in test [3] (0.0008 ppm), 2%. The inhibition of growth at 0.004 ppm with Alternaria alternate (0.004 ppm) was found to be 0%; with Botrytis cinerea [1] (0.004 ppm), 0%; in the test on Cercospora beticola [2] (0.004 ppm alone) it was 0%; in the test with Diaporthe citri (0.004 ppm), 0%; in test [3] (0.004 ppm), 3%. Further, the inhibition of growth at 0.02 ppm in the test with Alternaria alternate (0.02 ppm) amounted to 9%; in the test on Botrytis cinerea [1] (0.02 ppm), 0%; with Cercospora beticola [2] (0.02 ppm alone) it was 0%; in the test on Diaporthe citri (0.02 ppm), 100%; in test [3] (0.02 ppm), 0%. Further, the inhibition of growth at 0.1 ppm in the test on Alternaria alternate (0.1 ppm) worked out at 72%; in the test with Botrytis cinerea [1] (0.1 ppm), 88%; in the test with Cercospora beticola [2] (0.1 ppm alone), 20%; in the test with Diaporthe citri (0.1 ppm), 100%; in test [3] (0.1 ppm), 0%.
For `N#Cc1ccc(Oc2ccc(C(F)(F)C(O)(Cn3[nH]cnc3=S)c3ccc(F)cc3F)nc2)cc1` (stereo not drawn) [(1.062) fluoxytioconazole, fluoxytio-conazole], the Efficacy % is 0% in the test with Cercospora beticola [4] (single compound, 0.008 ppm); 0% in the test on Cercospora beticola [4] (single compound, 0.04 ppm); 0% in the test with Cercospora beticola [4] (single compound, 0.2 ppm); 48% and 54% in the test on Cercospora beticola [4] (single compound, 1 ppm); 43% in [5] (0.04 ppm); 32% with Colletotrichum coccodes (0.008 ppm). The Efficacy % with Colletotrichum coccodes (0.04 ppm) is listed as 0%; with Colletotrichum coccodes (single active compound at 0.008 ppm), 0%; with Colletotrichum coccodes (single active compound at 0.04 ppm), 2%; with Colletotrichum coccodes (single active compound at 0.2 ppm) it was 29%; with Colletotrichum coccodes (single active compound at 1 ppm), 35%. Moreover, the Efficacy was 4% in the test on Cordana musae (0.008 ppm); 10% in the test on Cordana musae (0.2 ppm); 30% in the test with Fusarium culmorum (single active compound, 1 ppm).
On to `Cc1ccc(C[C@H]2CON=C(c3cc(C)nnc3Oc3cccc(C4CC4)c3F)N2)c(C)c1` [Compound I-130, (5S)-3-[3-(3-cyclopropyl-2-fluorophenoxy)-6-methylpyridazin-4-yl]-5-(2,4-dimethylbenzyl)-5,6-dihydro-4H-1,2,4-oxadiazine], for which the inhibition of growth at 0.008 ppm was 25% in the test on Alternaria alternata (0.008 ppm); 96% in the test on Botrytis cinerea [6] (Botrytis cinerea, 0.008 ppm alone, read-out: Efficacy %); 94% in the test on Colletotrichum coccodes (Colletotrichum coccodes, applied alone, 0.008 ppm, read-out: Efficacy %). The inhibition of growth at 0.04 ppm in the test with Alternaria alternata was 100%; in the test with Botrytis cinerea [6] (Botrytis cinerea, 0.04 ppm alone, read-out: Efficacy %), 100%; with Colletotrichum coccodes (Colletotrichum coccodes, applied alone, 0.04 ppm, read-out: Efficacy %) it was 100%. Moreover, the inhibition of growth at 0.2 ppm amounted to 100% in the test with Alternaria alternata; 100% with Botrytis cinerea [6] (Botrytis cinerea, 0.2 ppm alone, read-out: Efficacy %); 100% with Colletotrichum coccodes (Colletotrichum coccodes, applied alone, 0.2 ppm, read-out: Efficacy %). In addition, the inhibition of growth at 1 ppm with Alternaria alternata stood at 100%; with Botrytis cinerea [6] (setting [7]), 100%; in the test with Colletotrichum coccodes (Colletotrichum coccodes, applied alone, 1 ppm, read-out: Efficacy %), 100%.
`Cc1ccc(C[C@@H]2CON=C(c3cc(C)nnc3Oc3cccc(Cl)c3F)N2)c(Cl)c1` [Compound I-338, (5R)-3-[3-(3-chloro-2-fluorophenoxy)-6-methylpyridazin-4-yl]-5-(2-chloro-4-methylbenzyl)-5,6-dihydro-4H-1,2,4-oxadiazine]: in the test with Alternaria alternata (0.008 ppm), the Efficacy was found to be 0% and the inhibition of growth at 0.008 ppm was determined as 0%. The inhibition of growth at 1 ppm in the test on Botrytis cinerea [6] (setting [7]) amounted to 85%. Also, in the test with Fusarium culmorum, the inhibition of growth at 0.008 ppm was determined as 22%, the inhibition of growth at 0.04 ppm was determined as 21% and the inhibition of growth at 0.2 ppm amounted to 0%. Also, in the test on Fusarium culmorum (1 ppm), the inhibition of growth at 1 ppm came out at 0%.
As to `Cc1ccc(C[C@H]2CON=C(c3cc(C)nnc3Oc3cccc(Cl)c3F)N2)c(Cl)c1` [Compound I-339, (5S)-3-[3-(3-chloro-2-fluoro-phenoxy)-6-methylpyridazin-4-yl]-5-(2-chloro-4-methylbenzyl)-5,6-dihydro-4H-1,2,4-oxadiazine], the inhibition of growth at 0.04 ppm is 100% in the test with Alternaria alternata (single compound); 0% in the test with Cercospora beticola [4] (Cercospora beticola, 0.04 ppm, read-out: Efficacy %); 100% in the test on Cordana musae (Neocordana musae, 0.04 ppm, read-out: Efficacy); 0% in the test with Fusarium culmorum; 0% in test [5] (alone, 0.04 ppm, read-out: Efficacy %). The inhibition of growth at 0.2 ppm in the test with Alternaria alternata (single compound) amounted to 100%; in the test with Cercospora beticola [4] (Cercospora beticola, 0.2 ppm, read-out: Efficacy %), 61%; with Cordana musae (Neocordana musae, 0.2 ppm, read-out: Efficacy), 100%; in the test with Fusarium culmorum, 14%; in test [5] (alone, 0.2 ppm, read-out: Efficacy %) it was 0%. Further, the inhibition of growth at 1 ppm is 100% in the test with Alternaria alternata (single compound); 98% with Cercospora beticola [4] (Cercospora beticola, 1 ppm, read-out: Efficacy %); 100% in the test on Cordana musae (Neocordana musae, 1 ppm, read-out: Efficacy); 99% with Fusarium culmorum (1 ppm); 0% in test [5] (alone, 1 ppm, read-out: Efficacy %). Moreover, the inhibition of growth at 0.008 ppm turned out to be 28% in the test on Cercospora beticola [4] (Cercospora beticola, 0.008 ppm, read-out: Efficacy %); 63% with Cordana musae (Neocordana musae, 0.008 ppm, read-out: Efficacy); 0% in the test on Fusarium culmorum; 2% in test [5] (alone, 0.008 ppm, read-out: Efficacy %).
In the case of `CS(=O)(=O)Oc1cccc(Cl)c1C1CC(c2csc(C3CCN(C(=O)Cn4nc(C(F)F)cc4C(F)F)CC3)n2)=NO1` (stereo not drawn) [fluoxapiprolin], the Efficacy in the test with Alternaria alternata (4 ppm) was determined as 0%; with Alternaria alternata (20 ppm), 1%; with Alternaria alternata (single compound, 0.8 ppm), 0%. Besides, the Efficacy % was found to be 0% in the test with Botrytis cinerea [6] (0.8 ppm, alone); 6% with Botrytis cinerea [6] (4 ppm alone); 5% in the test on Botrytis cinerea [6] (20 ppm alone); 0% in the test on Cercospora beticola [4] (20 ppm).
In the case of `N#Cc1ccc(Oc2ccc(C(F)(F)C(O)(Cn3[nH]cnc3=S)c3ccc(F)cc3F)nc2)cc1` (stereo not drawn) [fluoxytioconazole], the Efficacy in the test with Alternaria alternata (single compound, 0.008 ppm) was 5%; in the test on Fusarium culmorum (0.008 ppm alone), 12%; in the test on Fusarium culmorum (1 ppm alone) it was 27%. The Efficacy % in the test with Botrytis cinerea [6] (0.008 ppm alone) is recorded as 0%; in the test with Botrytis cinerea [6] (0.2 ppm alone), 0%; in the test on Botrytis cinerea [6] (1 ppm alone), 13%; in [5] (alone, 0.008 ppm), 8%; in [5] (alone, 0.04 ppm), 35%; in test [5] (alone, 0.2 ppm) it was 100%.
As to `CCO[PH](=O)O` [fosetyl-al], the Efficacy % in the test with Botrytis cinerea [6] (4 ppm alone) worked out at 2%; in the test with Botrytis cinerea [6] (100 ppm alone), 0%.
